How the values were obtained:
[1] = test system: KRAS-mutated cholangiocarcinoma cell line HUCCT1; assay: Cell viability assay, CellTiter-Glo (CTG) method, HUCCT1; type: cell-based; conditions: concentration higher than 2.5 μM; 1 nM Estradiol; 168 hours; lower inhibition rate than OZ; FIG. 4
Protocol: (§1) Fulvestrant was assayed for its anti-cholangiocarcinoma activity using the CTG method. The cell lines used were KRAS-mutated cholangiocarcinoma cell lines HUCCT1 and OZ, as well as KRAS wild-type cholangiocarcinoma cell line HCCC-9810. The efficacy of treatment by a medicament for cholangiocarcinoma was determined by comparing the difference in growth between KRAS-mutant-type group and wild-type group after treatment by a medicament. The specific steps were as follows:
(§2) 1) Different experimental cell lines were sub-cultured into 96-well plates. 100 μL of PBS was added around the 96-well plates as a blank, where the cholangiocarcinoma cell lines used were HUCCT, OZ and HCCC-9810. The cells in the 96-well plates were cultured overnight at 37° C., 5% CO2 and 95% humidity.
(§3) 2) The cell culture medium in the 96-well plate was discarded and 100 μL of phenol red-free RPMI1640 culture medium containing 5% Charcoal Stripped FBS was added.
(§4) 3) The cells in the 96-well plate with the changed medium were cultured at 37° C., 5% CO2, 95% humidity for another 48 hours. […]
(§5) 9) On the 11th day of the culture, CellTiter-Glo® reagent and medicament-treated cell culture plates were placed at room temperature for 30 minutes to equilibrate. […] Chemiluminescence values were read with EnVision®. […]

[2] = test system: KRAS-mutated cholangiocarcinoma cell line OZ; assay: Cell viability assay, CellTiter-Glo (CTG) method, OZ; type: cell-based; conditions: 1 μM Fulvestrant; 1 nM Estradiol; 168 hours; inhibition rate increased with concentration; FIG. 4
Protocol: as §1, §2, §3, §4, §5

C[C@]12CC[C@@H]3c4ccc(O)cc4C[C@@H](CCCCCCCCC[S+]([O-])CCCC(F)(F)C(F)(F)F)[C@H]3[C@@H]1CC[C@@H]2O (some centres unmarked) [Fulvestrant]
growth inhibition of HuCCT1 [1]: significantly inhibited
growth inhibition of OZ [2]: significant growth inhibition
